Laboratory results reported in PMC12391994, “Synthesis of a fac-Tricarbonylrhenium(I) Complex with Pyrithione, Its Physicochemical Characterization, and Assessment of Biological Effects” (ACS Omega, 2025).

Assays:
S. aureus ATCC 25923 = assay: Antibacterial MIC assay, S. aureus ATCC 25923; format: cell-based, Staphylococcus aureus; details: 18 h, visual inspection
Experimental: (§1) The antibacterial effect of the complex was tested against the Gram-negative strain Escherichia coli (E. coli) ATCC 25922, the Gram-positive reference strain Staphylococcus aureus (S. aureus) ATCC 25923, and the methicillin-resistant S. aureus MRSA ATCC 43300 strain. MRSA strains are responsible for several difficult-to-treat hospital-acquired infections.
(§2) The following bacterial strains were used in our experiments: Gram-positive S. aureus American Type Culture Collection (ATCC) 25923 as the methicillin-susceptible reference bacterial strain; methicillin-resistant S. aureus ATCC 43300 (MRSA) strain; E. coli ATCC 25922 as a Gram-negative bacterial strain.
(§3) MIC values of the complexes were determined in 96-well plates based on the Clinical and Laboratory Standard Institute guidelines (CLSI guidelines). The stock solutions of the compound (dissolved in DMSO at 5 mM concentration) were diluted in 100 μL of Mueller Hinton Broth. Then, 10^–4 dilution of an overnight bacterial culture in 100 μL of medium was added to each well, with the exception of the medium control wells.

[1] = tested on: S. aureus MRSA ATCC 43300; assay: Antibacterial MIC assay, S. aureus MRSA ATCC 43300; format: cell-based, Staphylococcus aureus; details: 18 h, visual inspection
Experimental: as §1, §2, §3

CCD-19Lu cells = assay: MTT cytotoxicity assay, CCD-19Lu; format: cell-based, human; details: 72 h incubation, noncancerous fibroblast
Experimental: Its cytotoxicity was determined in the human HeLa cervical cancer cell line, the drug-sensitive Colo205 and its resistant counterpart, the ABCB1 expressing Colo320 colon adenocarcinoma cancer cell lines, using the colorimetric 3-(4,5-dimethylthiazol-2-yl)-2,5-diphenyltetrazolium bromide (MTT) test. To investigate the selectivity toward cancer cells, the noncancerous fibroblast CCD-19Lu cell line was included.
The tested compound was dissolved in DMSO to prepare a 5 mM stock solution, which was diluted in complete culture medium, to study the effect of compounds on cell growth of human colonic adenocarcinoma cell lines. Doxorubicin was used as the positive control. The cells were treated with a trypsin-versene (EDTA) solution. Cells were adjusted to a density of 1 × 10^4 cells in 100 μL of the appropriate culture medium and were added to each well, with the exception of the medium control wells. Except for the semiadherent Colo205 and Colo320 cell lines, the other adherent cell lines were seeded 24 h prior to the assay. Then, stock solutions were diluted in the appropriate culture medium, and 2-fold serial dilutions of compounds were prepared in 100 μL of the medium, horizontally. […] Cell growth was determined by measuring the optical density (OD) at 540/630 nm with a Multiscan EX ELISA reader (Thermo Labsystems, Cheshire, WA). […]

[2] = pH 7.4, 25.0 °C
Experimental: The concentration of the compound was determined by UV–vis spectrophotometry. For calibration, stock solutions of the compound were used with known concentrations dissolved in 100% DMSO, 75% DMSO, and 50% (v/v) DMSO/buffered aqueous solutions.

cathepsin L = molecular target: T1, cathepsin L (Homo sapiens, UniProt P07711); assay: Relative inhibition of cathepsin L; format: biochemical; details: 50 μM; substrate Z-Phe-Arg-AMC; pH 5.5
T1 construct: made in house; host or cells: E. coli
Description: Relative inhibition is expressed as a percentage of the decrease in reaction velocity in the presence of an inhibitor, in comparison to the reaction velocity in the absence of an inhibitor. For that purpose, the specific fluorogenic substrates Z-Arg-Arg-7-amido-4-methylcoumarin (Z-Arg-Arg-AMC) and 2-aminobenzoyl (Abz)-Gly-Ile-Val-Arg-Ala-Lys-(Dnp)-OH were used for cathepsin B endopeptidase and exopeptidase activities, respectively, and Z-Phe-Arg-AMC was used for cathepsin L and V activities.
Human recombinant cathepsin B was expressed in E. coli, recombinant cathepsin V was expressed in Pichia pastoris, and human recombinant cathepsin L was expressed in E. coli, as reported. − For the determination of cathepsin B endopeptidase and exopeptidase activities, 100 mM phosphate buffer (pH 6.0) and 60 mM acetate buffer (pH 5.0) were used, respectively, and for the determination of cathepsin V and L activities, 100 mM acetate buffer (pH 5.5) was used. All buffers contained 0.1% PEG 8000 (Sigma-Aldrich, St. Louis, MO), 5 mM cysteine, and 1.5 mM EDTA. Prior to the assay, the enzymes were activated in the assay buffer for 5 min at 37 °C.
To determine the effect of inhibitors on enzyme activity, the following substrates were used: Z-Arg-Arg-AMC (final concentration 5 μM, Z-RR-AMC; Bachem, Bubendorf, Switzerland) for cathepsin B endopeptidase activity, Abz-Gly-Ile-Val-Arg-Ala-Lys-(Dnp)-OH (final concentration 1 μM, Abz-GIVRAK-(Dnp)-OH; Bachem) for cathepsin B exopeptidase activity, and Z-Phe-Arg-AMC (final concentration 2 μM, Z-FR-AMC; Bachem) for cathepsin V and L activity. The substrate ([…]) at a final concentration and inhibitor ([…]) at a concentration of 50 μM were added to the wells of a black microplate. The reaction was then initiated by adding 90 μL of activated enzyme (final concentrations: 5 nM cathepsin B for its endopeptidase activity, 0.5 nM cathepsin B for its exopeptidase activity, 2.5 ng/mL for cathepsin V, and 0.02 nM for cathepsin L) in the assay buffer. The formation of fluorescent degradation products during the reaction was continuously monitored at 460 ± 10 nm with excitation at 380 ± 20 nm for Z-Arg-Arg-AMC and Z-Phe-Arg-AMC and at 420 ± 10 nm with excitation at 320 ± 20 nm for Abz-Gly-Ile-Val-Arg-Ala-Lys(Dnp)-OH at 37 °C on a Tecan Infinite M1000 (Mannedorf, Switzerland) spectrofluorometer. All assay mixtures contained 5% (v/v) DMSO. To prevent false-positive inhibition due to the formation of compound aggregates, 0.01% Triton X-100 was used. All measurements were performed in triplicate and repeated twice. The relative inhibition was calculated using the following equation: relative inhibition (%) = 100(1 – v i/v o), where v i and v o designate the reaction velocities in the presence and absence of inhibitor, respectively.

T1 sequence (P07711 114-333): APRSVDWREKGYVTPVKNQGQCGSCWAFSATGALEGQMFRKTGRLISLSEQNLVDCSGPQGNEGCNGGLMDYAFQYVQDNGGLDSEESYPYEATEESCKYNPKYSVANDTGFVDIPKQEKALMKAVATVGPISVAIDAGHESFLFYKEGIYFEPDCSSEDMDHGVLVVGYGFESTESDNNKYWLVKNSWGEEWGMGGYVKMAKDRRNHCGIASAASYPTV

SMILES: N#Cc1ccccc1.[C-]#[O+].[C-]#[O+].[C-]#[O+].[O-]n1ccccc1=S.[Re+] [complex 4, fac-[Re(CO)3(pth)(benzonitrile)]]
- MIC (S. aureus ATCC 25923): 6.25 µM
- MIC S. aureus MRSA ATCC 43300 [1]: 12.5 µM
- IC50 (CCD-19Lu cells): 5.47 ± 0.17 µM
- aqueous solubility S7.4 [2]: 350 ± 10 µM
- relative inhibition cathepsin L (cathepsin L): 5.0 ± 4.8%
